In PubChem BioAssay (NCI):
Where “and” joins values, the source holds several entries; their conditions need not be identical. Equal values may be shown once.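 Five concentrations, 48 hours, 96-well plates. GI50: concentration for 50% inhibition of growth. Definition used: TGI = concentration required for complete inhibition of growth.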

Key:
Experiment in all cases: NCI tumour cell line growth inhibition, 48 h; in the data active = GI50 below about 0.43 µM; inactive = the rest
A549 NSCLC = system: A549 NSCLC
A498 renal = system: A498 renal
CCRF-CEM leukemia = system: CCRF-CEM leukemia
SF-268 CNS = system: SF-268 CNS
HOP-92 NSCLC = system: HOP-92 NSCLC
COLO 205 colon = system: COLO 205 colon
XF 498 CNS = system: XF 498 CNS
HCC-2998 colon = system: HCC-2998 colon
RXF 393 renal = system: RXF 393 renal
NCI-H460 lung = system: NCI-H460 lung
SF-539 CNS = system: SF-539 CNS
SN12C renal = system: SN12C renal
SR leukemia = system: SR leukemia
ACHN renal = system: ACHN renal
HCT-15 colon = system: HCT-15 colon
OVCAR-3 ovarian = system: OVCAR-3 ovarian
RPMI-8226 leukemia = system: RPMI-8226 leukemia
M19-MEL melanoma = system: M19-MEL melanoma
OVCAR-5 ovarian = system: OVCAR-5 ovarian
NCI-H226 lung = system: NCI-H226 lung
RXF-631 renal = system: RXF-631 renal
SK-MEL-5 melanoma = system: SK-MEL-5 melanoma
SNB-78 CNS = system: SNB-78 CNS
EKVX NSCLC = system: EKVX NSCLC
NCI-H522 lung = system: NCI-H522 lung
MALME-3M melanoma = system: MALME-3M melanoma
OVCAR-4 ovarian = system: OVCAR-4 ovarian
KM12 colon = system: KM12 colon
HOP-18 NSCLC = system: HOP-18 NSCLC
LXFL 529 NSCLC = system: LXFL 529 NSCLC
IGROV1 ovarian = system: IGROV1 ovarian
KM20L2 colon = system: KM20L2 colon
SNB-19 CNS = system: SNB-19 CNS
SF-295 CNS = system: SF-295 CNS
UO-31 renal = system: UO-31 renal
HCT-116 colon = system: HCT-116 colon
SK-MEL-2 melanoma = system: SK-MEL-2 melanoma
M14 melanoma = system: M14 melanoma
SW-620 colon = system: SW-620 colon
DMS 114 small cell lung = system: DMS 114 small cell lung
MOLT-4 leukemia = system: MOLT-4 leukemia
DLD-1 colon = system: DLD-1 colon
SNB-75 CNS = system: SNB-75 CNS
TK-10 renal = system: TK-10 renal
SK-MEL-28 melanoma = system: SK-MEL-28 melanoma
UACC-62 melanoma = system: UACC-62 melanoma
OVCAR-8 ovarian = system: OVCAR-8 ovarian
DMS 273 small cell lung = system: DMS 273 small cell lung
UACC-257 melanoma = system: UACC-257 melanoma
HOP-62 NSCLC = system: HOP-62 NSCLC
LOX IMVI melanoma = system: LOX IMVI melanoma
786-0 renal = system: 786-0 renal
SK-OV-3 ovarian = system: SK-OV-3 ovarian
HT29 colon = system: HT29 colon
U251 CNS = system: U251 CNS
CAKI-1 renal = system: CAKI-1 renal
K-562 leukemia = system: K-562 leukemia
NCI-H23 lung = system: NCI-H23 lung
HL-60(TB) leukemia = system: HL-60(TB) leukemia
P388/ADR leukemia = system: P388/ADR leukemia
P388 leukemia = system: P388 leukemia
SN12K1 renal = system: SN12K1 renal
NCI/ADR-RES ovarian = system: NCI/ADR-RES ovarian
MCF7 breast = system: MCF7 breast

COc1cc(C(C)c2cc3c(cc2OCCOCCOc2cc4c(cc2C(C)c2cc(OC)c(OC)c(OC)c2)OCO4)OCO3)cc(OC)c1OC (stereo not drawn)
inactive: GI50 (A549 NSCLC) > 100 µM | GI50 (A498 renal) > 100 µM | GI50 (CCRF-CEM leukemia) > 100 µM | GI50 (SF-268 CNS) > 100 µM | GI50 (COLO 205 colon) > 100 µM | GI50 (HCC-2998 colon) > 100 µM | GI50 (RXF 393 renal) > 100 µM | GI50 (NCI-H460 lung) > 100 µM | GI50 (SF-539 CNS) > 100 µM | GI50 (SN12C renal) > 100 µM | GI50 (ACHN renal) > 100 µM | GI50 (M19-MEL melanoma) > 100 µM | GI50 (OVCAR-5 ovarian) > 100 µM | GI50 (RXF-631 renal) > 100 µM | GI50 (SK-MEL-5 melanoma) > 10 µM | GI50 (EKVX NSCLC) > 100 µM | GI50 (NCI-H522 lung) > 100 µM | GI50 (MALME-3M melanoma) > 100 µM | GI50 (OVCAR-4 ovarian) > 100 µM | GI50 (KM12 colon) > 100 µM | GI50 (LXFL 529 NSCLC) > 100 µM | GI50 (IGROV1 ovarian) > 100 µM | GI50 (KM20L2 colon) > 100 µM | GI50 (SNB-19 CNS) > 100 µM | GI50 (SF-295 CNS) > 10 µM | GI50 (UO-31 renal) > 10 µM | GI50 (HCT-116 colon) > 100 µM | GI50 (SK-MEL-2 melanoma) > 100 µM | GI50 (M14 melanoma) > 100 µM | GI50 (SW-620 colon) > 100 µM | GI50 (DMS 114 small cell lung) > 100 µM | GI50 (MOLT-4 leukemia) > 100 µM | GI50 (DLD-1 colon) > 100 µM | GI50 (SNB-75 CNS) > 10 µM | GI50 (TK-10 renal) > 100 µM | GI50 (SK-MEL-28 melanoma) > 100 µM | GI50 (UACC-62 melanoma) > 100 µM | GI50 (OVCAR-8 ovarian) > 100 µM | GI50 (HOP-62 NSCLC) > 100 µM | GI50 (LOX IMVI melanoma) > 100 µM | GI50 (786-0 renal) > 100 µM | GI50 (SK-OV-3 ovarian) > 100 µM | GI50 (HT29 colon) > 100 µM | GI50 (U251 CNS) > 100 µM | GI50 (CAKI-1 renal) > 100 µM | GI50 (K-562 leukemia) > 10 µM | GI50 (NCI-H23 lung) > 100 µM | GI50 (HL-60(TB) leukemia) > 100 µM
> 10 µM: TGI (XF 498 CNS) | TGI (SR leukemia) | TGI (HCT-15 colon) | TGI (OVCAR-3 ovarian) | TGI (NCI-H226 lung) | TGI (SNB-78 CNS) | TGI (HOP-18 NSCLC) | TGI (DMS 273 small cell lung) | TGI (UACC-257 melanoma)
> 100 µM: TGI (A549 NSCLC) | TGI (A498 renal) | TGI (CCRF-CEM leukemia) | TGI (SF-268 CNS) | TGI (HOP-92 NSCLC) | TGI (COLO 205 colon) | TGI (HCC-2998 colon) | TGI (RXF 393 renal) | TGI (NCI-H460 lung) | TGI (SF-539 CNS) | TGI (SN12C renal) | TGI (ACHN renal) | TGI (RPMI-8226 leukemia) | TGI (M19-MEL melanoma) | TGI (OVCAR-5 ovarian) | TGI (RXF-631 renal) | TGI (SK-MEL-5 melanoma) | TGI (EKVX NSCLC) | TGI (NCI-H522 lung) | TGI (MALME-3M melanoma) | TGI (OVCAR-4 ovarian) | TGI (KM12 colon) | TGI (LXFL 529 NSCLC) | TGI (IGROV1 ovarian) | TGI (KM20L2 colon) | TGI (SNB-19 CNS) | TGI (SF-295 CNS) | TGI (UO-31 renal) | TGI (HCT-116 colon) | TGI (SK-MEL-2 melanoma) | TGI (M14 melanoma) | TGI (SW-620 colon) | TGI (DMS 114 small cell lung) | TGI (MOLT-4 leukemia) | TGI (DLD-1 colon) | TGI (TK-10 renal) | TGI (SK-MEL-28 melanoma) | TGI (UACC-62 melanoma) | TGI (OVCAR-8 ovarian) | TGI (HOP-62 NSCLC) | TGI (LOX IMVI melanoma) | TGI (786-0 renal) | TGI (SK-OV-3 ovarian) | TGI (HT29 colon) | TGI (U251 CNS) | TGI (CAKI-1 renal) | TGI (K-562 leukemia) | TGI (NCI-H23 lung) | TGI (HL-60(TB) leukemia)
> 10 µM and 74.8 µM: TGI (SNB-75 CNS)

O=c1c2cc(-c3ccccc3)sc2nc2sc(-c3ccccc3)nn12
> 100 µM: TGI (A549 NSCLC) | TGI (A498 renal) | TGI (CCRF-CEM leukemia) | TGI (SF-268 CNS) | TGI (HOP-92 NSCLC) | TGI (COLO 205 colon) | TGI (XF 498 CNS) | TGI (RXF 393 renal) | TGI (NCI-H460 lung) | TGI (SF-539 CNS) | TGI (SN12C renal) | TGI (SR leukemia) | TGI (HCT-15 colon) | TGI (OVCAR-3 ovarian) | TGI (RPMI-8226 leukemia) | TGI (M19-MEL melanoma) | TGI (OVCAR-5 ovarian) | TGI (NCI-H226 lung) | TGI (RXF-631 renal) | TGI (SK-MEL-5 melanoma) | TGI (SNB-78 CNS) | TGI (EKVX NSCLC) | TGI (NCI-H522 lung) | TGI (MALME-3M melanoma) | TGI (OVCAR-4 ovarian) | TGI (KM12 colon) | TGI (HOP-18 NSCLC) | TGI (LXFL 529 NSCLC) | TGI (IGROV1 ovarian) | TGI (KM20L2 colon) | TGI (SNB-19 CNS) | TGI (SF-295 CNS) | TGI (UO-31 renal) | TGI (HCT-116 colon) | TGI (SK-MEL-2 melanoma) | TGI (M14 melanoma) | TGI (SW-620 colon) | TGI (DMS 114 small cell lung) | TGI (MOLT-4 leukemia) | TGI (DLD-1 colon) | TGI (SNB-75 CNS) | TGI (TK-10 renal) | TGI (UACC-62 melanoma) | TGI (OVCAR-8 ovarian) | TGI (DMS 273 small cell lung) | TGI (UACC-257 melanoma) | TGI (HOP-62 NSCLC) | TGI (LOX IMVI melanoma) | TGI (786-0 renal) | TGI (SK-OV-3 ovarian) | TGI (HT29 colon) | TGI (U251 CNS) | TGI (CAKI-1 renal) | TGI (K-562 leukemia) | TGI (NCI-H23 lung) | TGI (HL-60(TB) leukemia)

CCCCCCc1ccc(O)cc1O
86.7 µM: TGI (UO-31 renal)
86.9 µM: TGI (HOP-92 NSCLC)
98 µM: TGI (M19-MEL melanoma)
> 93.8 µM: TGI (IGROV1 ovarian)
> 100 µM: TGI (A549 NSCLC) | TGI (A498 renal) | TGI (CCRF-CEM leukemia) | TGI (SF-268 CNS) | TGI (COLO 205 colon) | TGI (XF 498 CNS) | TGI (P388/ADR leukemia) | TGI (HCC-2998 colon) | TGI (RXF 393 renal) | TGI (P388 leukemia) | TGI (NCI-H460 lung) | TGI (SF-539 CNS) | TGI (SN12C renal) | TGI (SN12K1 renal) | TGI (HCT-15 colon) | TGI (NCI/ADR-RES ovarian) | TGI (OVCAR-3 ovarian) | TGI (OVCAR-5 ovarian) | TGI (NCI-H226 lung) | TGI (SNB-78 CNS) | TGI (EKVX NSCLC) | TGI (NCI-H522 lung) | TGI (MALME-3M melanoma) | TGI (OVCAR-4 ovarian) | TGI (KM12 colon) | TGI (KM20L2 colon) | TGI (SNB-19 CNS) | TGI (SF-295 CNS) | TGI (HCT-116 colon) | TGI (SW-620 colon) | TGI (DLD-1 colon) | TGI (SNB-75 CNS) | TGI (MCF7 breast) | TGI (SK-MEL-28 melanoma) | TGI (OVCAR-8 ovarian) | TGI (DMS 273 small cell lung) | TGI (HOP-62 NSCLC) | TGI (LOX IMVI melanoma) | TGI (SK-OV-3 ovarian) | TGI (HT29 colon) | TGI (U251 CNS) | TGI (K-562 leukemia) | TGI (NCI-H23 lung) | TGI (HL-60(TB) leukemia)
> 79.1 µM: TGI (SK-MEL-5 melanoma) | TGI (UACC-62 melanoma)
> 92.5 µM: TGI (HOP-18 NSCLC)
64 µM: TGI (SK-MEL-2 melanoma)
> 77 µM: TGI (RPMI-8226 leukemia)
97.4 µM: TGI (MOLT-4 leukemia)
> 85.1 µM: TGI (UACC-257 melanoma)
